Reference: patent US6479524B1, “Substituted aryl and heteroaryl derivatives, their production and their use as medicines” (Boehringer Ingelheim Pharma KG, priority 1998, dated 2002)

Tested on: human citrated plasma
Experiment: aPTT time prolongation (clotting of human citrated plasma, Biomatic B10 coagulometer)
Format: biochemical
Details: effective concentration at which the aPTT time is double compared with the control, 37° C.
Experimental: were investigated for their effect on prolonging the aPTT time as follows:
plasma, from human citrated blood.
Diethylbarbiturate acetate buffer, Behring Werke, Marburg (ORWH 60/61),
Biomatic B10 coagulometer, Desaga, Wiesloch.
The aPTT time was determined using a Biomatic B10 coagulometer made by Messrs. Sarstedt.
The test substance was placed in the test tubes prescribed by the manufacturer with 0.1 ml of human citrated plasma and 0.1 ml of PTT reagent. The mixture was incubated for three minutes at 37° C. The clotting reaction was started by the addition of 0.1 ml of calcium solution. The time is measured using the apparatus from the addition of the calcium solution up to the clotting of the mixture. Mixtures to which 0.1 ml of DBA buffer were added were used as the controls.

SMILES	aPTT time (ED200 in μM)
CCOC(=O)Cc1cc(C#CCNc2ccc(C(=N)N)cc2)c(C)cc1C(=O)N1CCCC1C (racemic) [A, rac-4-{3-[5-ethoxycarbonylmethyl-2-methyl-4-(2-methyl-pyrrolidinocarbonyl)-phenyl]-propargylamino}benzamidine]	0.23 µM
Cc1cc(NC(=O)N(CC(=O)O)C(C)C)c(C)cc1C#CCNc1ccc(C(=N)N)cc1 [H, 4-{3-[2,5-dimethyl-4-(N-isopropyl-N-hydroxycarbonylmethyl-aminocarbonyl-amino)-phenyl]-propargylamino}-benzamidine]	0.20 µM
Cc1cc(C(=O)C(C)C)c(C)cc1C#CCNc1ccc(C(=N)N)cc1 [C, 4-[3-(2,5-dimethyl-4-isopropylcarbonyl-phenyl)propargyl-amino]benzamidine]	0.97 µM
CCN(CCC(=O)OC)C(=O)c1cc(C)c(C#CCNc2ccc(C(=N)N)cc2)cc1C [G, 4-{3-[2,5-dimethyl-4-(N-(2-methoxycarbonyl-ethyl)-N-ethyl-carbonylamino)-phenyl]-propargylamino}benzamidine]	0.29 µM
Cc1cc(C(=O)N(C)c2ccccn2)c(C)cc1C#CCNc1ccc(C(=N)N)cc1 [D, 4-{3-[2,5-dimethyl-4-(N-methyl-N-pyridin-2-yl-aminocarbonyl)-phenyl]propargylamino}benzamidine]	0.23 µM
Cc1cc(C#CCNc2ccc(C(=N)N)cc2)ccc1C(=O)N1CCCC1 [F, 4-[3-(3-methyl-4-pyrrolidinocarbonyl-phenyl)-propargyl-amino]-benzamidine]	0.54 µM
Cc1cc(N(C(=O)CC(=O)O)C(C)C)c(C)cc1C#CCNc1ccc(C(=N)N)cc1 [I, 4-{3-[2,5-dimethyl-4-(N-isopropyl-N-hydroxycarbonylmethyl-carbonyl-amino)-phenyl]-propargylamino}-benzamidine]	0.45 µM
Cc1cc(C(=O)N(C)c2ccccn2)c(C)cc1CCCNc1ccc(C(=N)N)cc1 [E, 4-{3-[2,5-dimethyl-4-(N-methyl-N-pyridin-2-yl-aminocarbonyl)-phenyl]prop-1-ylamino}benzamidine]	0.69 µM
Cc1cc(C(=O)N2CCCC2C)c(C)cc1C#CCNc1ccc(C(=N)N)cc1 (racemic) [B, rac-4-{3-[2,5-dimethyl-4-(2-methyl-pyrrolidinocarbonyl)-phenyl]-propargylamino}benzamidine]	0.45 µM
